In patent US5399697A, “N,N',N'-trisubstituted-5-bisaminomethylene-1,3-dioxane-4,6-dione inhibitors of acyl-CoA:cholesterol-acyl transferase” (American Home Products Corporation, priority 1993, dated 1995):

What was measured:
[1] = test system: cholesterol absorption; test: 14C-cholesterol absorption in normal rats (oral gavage); assay type: in vivo; details: Rattus norvegicus; for ED50: normal fed rats
Protocol: Representative compounds were further tested in vivo to establish the percent inhibition of cholesterol absorption. In this study, normal rats were dosed (oral gavage) with ^14 C-cholesterol plus the test compound. Blood samples taken at six hours and/or intermittently up to twenty-four hours were analyzed and the percent inhibition of cholesterol absorption was calculated.

[2] = test system: plasma cholesterol; test: Plasma cholesterol in cholesterol-cholic acid fed rats; assay type: in vivo; details: Rattus norvegicus, oral gavage; for ED50: fifty percent reduction of plasma cholesterol; for change in vivo at 100 mg/kg / change in vivo at 60 mg/kg / change in vivo at 40 mg/kg / change in vivo at 20 mg/kg: 96 h, four days, read-out: % Decrease in Plasma Cholesterol
Protocol: In addition, representative compounds were studied in vivo in cholesterol-cholic acid fed rats to determine the percent decrease of cholesterol in their plasma. This study involves rats which are, prior to testing, trained for one week to eat over a four hour time period each day. Upon initiation of the experiment, the rats diet is supplemented with 1.0 percent cholesterol and 0.25 percent cholic acid. The rats are dosed with the test compound by oral gavage just prior to adjust following the four hour feeding period. This is repeated for four days. On the fifth day, the rats are sacrificed and the total plasma cholesterol content is determined. The percent decrease in elevated plasma cholesterol levels is calculated in comparison with […].

[3] = test system: acyl-coenzyme A: cholesterol acyltransferase; test: Inhibition of ACAT / intracellular cholesterol esterification in vitro (procedure of Ross et al.); assay type: cell-based; details: for IC50: read-out: IC50
[4] = normal rats, read-out: % Inhibition of Absorption

Row | Structure (SMILES) | IC50 [3] | % Inhibition ([3]; 25 μM) | other results
1 | CCCCCCCN(Cc1ccc(C(C)(C)C)cc1)C(Nc1ccc(OC)cc1OC)=C1C(=O)OC(C)(C)OC1=O [Compound 2] | 900 nM |  | ED50 [1]: 44 mg/kg; change in vivo at 200 mg/kg [1, 4]: -88%; ED50 [2]: 99 mg/kg; % Inhibition ([3]; 50 μM): 85%
2 | CCCCCC(C)N(Cc1ccc(C(C)(C)C)cc1)C(Nc1ccc(OC)cc1OC)=C1C(=O)OC(C)(C)OC1=O (stereo not drawn) [Compound 4, 5-[[(2,4-Dimethoxophenyl)amino][[[4-(1,1-dimethylethyl)phenyl]methyl](1-methylhexyl)amino]-methylene]-2,2-dimethyl-1,3-dioxane-4,6-dione] | 260 nM | 99% | ED50 [1]: 10 mg/kg; change in vivo at 200 mg/kg [1, 4]: -93%; change in vivo at 100 mg/kg [2]: -98%; ED50 [2]: 64 mg/kg
3 | CCCCCCCN(Cc1ccc(OCCC(C)C)cc1)C(Nc1ccc(OC)cc1OC)=C1C(=O)OC(C)(C)OC1=O [Compound 6, 5-[[(2,4-Dimethoxyphenyl)amino][heptyl[[4-[(3-methylbutyl)oxy]phenyl]methyl]amino]-methylene]-2,2-dimethyl-1,3-dioxane-4,6-dione] | 1500 nM | 99% | change in vivo at 100 mg/kg [2]: -42%
4 | COc1ccc(NC(=C2C(=O)OC(C)(C)OC2=O)N(Cc2ccc(CC(C)C)cc2)C2CCN(CCc3ccccc3)CC2)c(OC)c1 [Compound 8, 5-[[(2,4-Dimethoxyphenyl)amino][[[4-(2-methylpropyl)phenyl]methyl][1-(phenylethyl)-4-piperidinyl]amino]methylene]-2,2-dimethyl-1,3-dioxane-4,6-dione] | 5600 nM | 85% | change in vivo at 10 mg/kg [1, 4]: -16%
5 | CCCCCCCN(Cc1ccc(CCCCC)cc1)C(Nc1ccc(OC)cc1OC)=C1C(=O)OC(C)(C)OC1=O [Compound 14, 5-[[(2,4-Dimethoxyphenyl)amino][heptyl[(4-pentylphenyl)methyl]amino]methylene]-2,2-dimethyl-1,3-dioxane-4,6-dione] | 840 nM | 99% | change in vivo at 100 mg/kg [2]: -85%; ED50 [2]: 16 mg/kg
6 | CCCCCCCN(Cc1ccc(OCCC(C)C)cc1)C(Nc1ccc(N(C)C)cc1)=C1C(=O)OC(C)(C)OC1=O [Compound 22, 5-[[[4-(Dimethylamino)phenyl]amino][heptyl[[[4-(3-methylbutyl)oxy]phenyl]methyl]amino]-methylene]-2,2-dimethyl-1,3-dioxane4,6-dione] | 370 nM | 93% | change in vivo at 60 mg/kg [2]: -46%
7 | CCCCOc1ccc(NC(=C2C(=O)OC(C)(C)OC2=O)N(Cc2ccc(C(C)(C)C)cc2)C(C)CCCC(C)C)cc1 (stereo not drawn) [Compound 28, 5-[[(4-Butoxyphenyl)amino][[[4-(1,1-dimethylethyl)phenyl]methyl](1,5-dimethylhexyl)amino]-methylene]-2,2-dimethyl-1,3-dioxane-4,6-dione] | 690 nM | 98% | change in vivo at 40 mg/kg [2]: -15%
8 | COc1ccc(NC(=C2C(=O)OC(C)(C)OC2=O)N(Cc2ccc(C(C)(C)C)cc2)C(C)CCCC(C)C)c(OC)c1 (stereo not drawn) [Compound 29, 5-[[(2,4-Dimethoxyphenyl)amino][[[4-(1,1-dimethylethyl)phenyl]methyl](1,5-dimethylhexyl)-amino]methylene]-2,2-dimethyl-1,3-dioxane-4,6-dione] | 230 nM | 99% | change in vivo at 100 mg/kg [2]: -84%
9 | CCCCCCCN(Cc1ccc(CC(C)C)cc1)C(Nc1ccc(OC)cc1OC)=C1C(=O)OC(C)(C)OC1=O [Compound 31, 5-[[(2,4,-Dimethoxyphenyl)amino][heptyl[[4-(2-methylpropyl)phenyl]methyl]amino]methylene]-2,2-dimethyl-1,3-dioxane-4,6-dione] | 910 nM | 97% | change in vivo at 60 mg/kg [2]: -71%
10 | CCCCCC(C)N(Cc1ccc(CC(C)C)cc1)C(Nc1cccc(OCc2ccccc2)c1)=C1C(=O)OC(C)(C)OC1=O (stereo not drawn) [Compound 34] | 1100 nM | 98% | change in vivo at 20 mg/kg [2]: -32%
11 | CCCCCC(C)N(Cc1ccc(OCCC(C)C)cc1)C(Nc1ccc(OC)cc1OC)=C1C(=O)OC(C)(C)OC1=O (stereo not drawn) [Compound 35] | 540 nM | 99% | change in vivo at 40 mg/kg [2]: -55%
12 | CCCCCCC(CCCCCC)N(Cc1ccc(CC(C)C)cc1)C(Nc1ccc(N(C)C)cc1)=C1C(=O)OC(C)(C)OC1=O [Compound 36] | 44 nM |  | change in vivo at 20 mg/kg [2]: -62%; % Inhibition ([3]; 26 μM): 99%
13 | CCCCCC(C)N(Cc1ccc(OCCC(C)C)cc1)C(Nc1ccc(N(C)C)cc1)=C1C(=O)OC(C)(C)OC1=O (stereo not drawn) [Compound 38, 5-[[[4-(Dimethylamino)phenyl]amino][[[4-(3-methylbutoxy)phenyl]methyl](1-methylhexylhexyl)amino]methylene]-2,2-dimethyl-1,3-dioxane-4,6-dione] | 210 nM | 99% | change in vivo at 40 mg/kg [2]: -58%
14 | COc1ccc(NC(=C2C(=O)OC(C)(C)OC2=O)N(Cc2ccc(CC(C)C)cc2)C(C)CCCC(C)C)c(OC)c1 (stereo not drawn) [Compound 39, 5-[[(2,4-Dimethoxyphenyl)amino][(1,5-dimethylhexyl)[[4-(2-methylpropyl)phenyl]methyl]amino]methylene]-2,2-dimethyl-1,3-dioxane-4,6-dione] | 370 nM | 99% | change in vivo at 40 mg/kg [2]: -65%
15 | CCCCc1ccc(CN(C(Nc2ccc(N(C)C)cc2)=C2C(=O)OC(C)(C)OC2=O)C(C)CCCC(C)(C)O)cc1 (stereo not drawn) [Compound 45, 5-[[[(4-Butylphenyl)methyl](5-hydroxy-1,5-dimethylhexyl)amino][[4-(dimethylamino)phenyl]-amino]-methylene]-2,2-dimethyl-1,3-dioxane-4,6-dione] | 5200 nM | 90% | change in vivo at 20 mg/kg [2]: -29%
16 | COc1ccc(NC(=C2C(=O)OC(C)(C)OC2=O)N(Cc2ccc(CC(C)C)cc2)C(C)CCCC(C)(C)O)c(OC)c1 (stereo not drawn) [Compound 52, 5-[[(2,4-Dimethoxyphenyl)amino][(5-hydroxy-1,5-dimethylhexyl)[[4-(2-methylpropyl)phenyl]-methyl]amino]methylene]-2,2-dimethyl-1,3-dioxane-2,4-dione] | 5600 nM | 89% | change in vivo at 10 mg/kg [1, 4]: -29%
17 | CC(C)Cc1ccc(CN(C(Nc2ccc(N(C)C)cc2)=C2C(=O)OC(C)(C)OC2=O)C(C)CCCC(C)(C)O)cc1 (stereo not drawn) [Compound 53] | 5200 nM | 81% | change in vivo at 10 mg/kg [1, 4]: -50%
18 | CCCCCc1ccc(CN(C(Nc2ccc(N(C)C)cc2C)=C2C(=O)OC(C)(C)OC2=O)C(C)CCCCC)cc1 (stereo not drawn) [Compound 54, 5-[[[4-(Dimethylamino)-2-methylphenyl]amino][(1-methylhexyl)[(4-pentylphenyl)methyl]-amino]methylene]-2,2-dimethyl-1,3-dioxane-4,6-dione] | 680 nM | 98% | change in vivo at 20 mg/kg [2]: -77%
19 | CCCCCCCN(Cc1ccc(CCC(C)C)cc1)C(Nc1ccc(OC)cc1OC)=C1C(=O)OC(C)(C)OC1=O [Compound 55, 5-[[(2,4-Dimethoxyphenyl)amino][heptyl[[4-(3-methylbutyl)phenyl]methyl]amino]methylene]2,2-dimethyl-1,3-dioxane-4,6-dione] | 3000 nM | 97% | change in vivo at 20 mg/kg [2]: -40%
20 | CCCCCCCN(Cc1ccc(C(C)(C)C)cc1)C(Nc1c(OC)cc(OC)cc1OC)=C1C(=O)OC(C)(C)OC1=O [Compound 59, 5-[[[[4-(1,1-Dimethylethyl)phenyl]methyl]heptylamino][(2,4,6-trimethoxyphenyl)amino]-methylene]-2,2-dimethyl-1,3-dioxane-4,6-dione] | 700 nM | 94% | change in vivo at 200 mg/kg [1, 4]: -21%
21 | COc1ccc(NC(=C2C(=O)OC(C)(C)OC2=O)N(Cc2ccc(CC(C)C)cc2)[C@@H](CO)CC(C)C)c(OC)c1 [Compound 74, (R)-5-[[(2,4-Dimethoxyphenyl)amino][[1-(hydroxymethyl)-3-methylbutyl][[4-(2-methylpropyl)-phenyl]methyl]amino]methylene]-2,2-dimethyl-1,3-dioxane-4,6,-dione] | 290 nM |  | % Inhibition ([3]; concentration not given): 97%
22 | CC1(C)OC(=O)C(=C(Nc2cc(C(C)(C)C)c(O)c(C(C)(C)C)c2)Nc2cnc3ccccc3c2)C(=O)O1 [Compound 81, 5-[(3,5-Di-tert-butyl-4-hydroxy-phenylamino)-(quinolin-3-ylamino)-methylene]-2,2-dimethyl-[1,3]dioxane-4,6-dione] |  |  | change in vivo at 3 mg/kg ([1]; normal rats, 3 mg/kg, read-out: % Inhibition of Absorption): -90%; % Inhibition ([3]; 50 μM): 90%
23 | CC1(C)OC(=O)C(=C(Nc2cccnc2)Nc2cc(C(C)(C)C)c(O)c(C(C)(C)C)c2)C(=O)O1 [Compound 82] |  |  | % Inhibition ([3]; 50 μM): 94%
24 | CN(C(Nc1cc(C(C)(C)C)c(O)c(C(C)(C)C)c1)=C1C(=O)OC(C)(C)OC1=O)c1ccccn1 [Compound 83] |  |  | % Inhibition ([3]; 50 μM): 86%
